Results taken from patent US6998423B2, “Prevention of loss and restoration of bone mass by certain prostaglandin agonists” (priority 1996, dated 2006).

System: Bone Morphogenetic Protein 7 (BMP-7) expression in EP2 293S cells
Assay: Induction of BMP-7 expression (Northern blot) in 293S cells transfected with the EP2 receptor
Type: cell-based, human
Conditions: 10^−6M, RNA extracted at 8, 16 and 24 hours, Northern blot with 32P-labeled BMP-7 probe
Experimental: Methods: 293S and EP2 293S cells were grown in Dulbecco's Modified Egale medium (DMEM, Gibco, BRL; Gaithersburg, Md.). One day prior to treatment with PGE2or a prostaglandin agonist, cells were plated at a density of 1.5×10^6 cells /10 cm dish. […] Cells were harvested and RNA extracted at 8, 16 and 24 hours. Northern blot analysis of total ([…] ) was carried out by probing the blots with ^32P-labeled BMP-7 probe. The blots were normalized for RNA loading by hybridization with ^32P-labeled 18s ribosomal RNA probe. […] Given the known role of BMP-7 in kidney regeneration and the ability of a prostaglandin agonist to induce BMP-7 expression in 293S kidney cells in a time and receptor specific manner indicates a role for a prostaglandin agonist in kidney regeneration.

CCCCC[C@H](O)/C=C/[C@H]1[C@H](O)CC(=O)[C@@H]1C/C=C\CCCC(=O)O [PGE2, prostaglandin E2]
induction of the expression of BMP-7: in a time dependent manner induce the expression of BMP-7
